The text below walks through data of US12612395B2, “Rocaglate derivatives and uses thereof” (TRUSTEES OF BOSTON UNIVERSITY, priority 2023, dated 2026).

In experiment [1] the test system is cap-dependent translation (FF cistron of FF-HCV-Ren). Nature of the experiment: In vitro translation assay, bicistronic FF-HCV-Ren mRNA reporter in Krebs-2 extracts. It counts as biochemical. From the text:
Given these observations, the inventors next sought to interrogate the effects of compound (−)-20 in secondary assays for both eIF4A and DDX3 engagement. […] While inherent differences between the FP assay conditions (e.g. probe affinity, protein mobility in FP buffer) preclude direct comparison of absolute AmP values across the two different proteins, the inventors noted that relative anti-CSC potencies for these compounds ((−)-7>(−)-5≈(−)-20) were similar to their relative degrees of clamping for DDX3X and eIF4A1. To follow up on these findings, the inventors performed in vitro translation experiments using a bicistronic mRNA reporter construct FF-HCV-Ren, where translation of the firefly luciferase (FF) cistron is cap-dependent, while translation of the Renilla luciferase (HCV-Ren) cistron is driven off an HCV-IRES, rendering translation of this cistron cap-independent.
In vitro translation assays: In vitro translations were performed using 4 ng/μL of bicistronic FF-HCV-Ren/pA51 reporter mRNA and the indicated compound concentrations in Krebs-2 extracts at 30° C. for 1 h as described previously.^S10 Cap-dependent FLuc and cap-independent RLuc activities were assessed on a Berthold Lumat LB 9507 luminometer (Berthold Technologies). Curves were determined using a non-linear regression model on GraphPad Prism 8.4.0.

For experiment [2], the target named is T1, DDX3X (Homo sapiens, UniProt O00571).
T1 construct: endogenous in cells; host or cells: GBM0308 glioblastoma stem cells (lysate)
T1 sequence (O00571 whole entry): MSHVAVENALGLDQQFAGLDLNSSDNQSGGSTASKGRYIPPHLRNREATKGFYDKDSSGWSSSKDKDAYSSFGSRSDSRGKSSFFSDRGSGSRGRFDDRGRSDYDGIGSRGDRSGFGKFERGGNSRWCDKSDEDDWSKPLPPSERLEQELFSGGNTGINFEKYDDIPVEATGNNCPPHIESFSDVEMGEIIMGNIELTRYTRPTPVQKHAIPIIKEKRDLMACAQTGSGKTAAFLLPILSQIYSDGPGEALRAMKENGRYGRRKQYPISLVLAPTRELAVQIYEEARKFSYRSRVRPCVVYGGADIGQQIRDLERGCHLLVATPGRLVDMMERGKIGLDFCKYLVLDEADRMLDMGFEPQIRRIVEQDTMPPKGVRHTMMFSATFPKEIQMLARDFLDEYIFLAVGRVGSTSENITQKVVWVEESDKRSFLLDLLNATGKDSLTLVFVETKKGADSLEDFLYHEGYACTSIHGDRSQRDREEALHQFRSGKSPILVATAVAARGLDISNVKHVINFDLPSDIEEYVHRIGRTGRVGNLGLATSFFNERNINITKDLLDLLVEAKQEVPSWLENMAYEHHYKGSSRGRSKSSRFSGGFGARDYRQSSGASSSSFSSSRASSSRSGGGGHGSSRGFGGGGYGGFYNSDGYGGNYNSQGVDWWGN
Briefly: PISA assay in GBM0308 cell lysates, DDX3X. The experiment is classed as binding. To be noted: GBM0308 lysate, compound 10 μM, AMP-PNP and (AG)8 RNA added. From the text: Derivatization-free target identification using a modified proteome integral solubility alteration (PISA) assay. The inventors next pursued proteome-wide target identification to better understand the target profiles of CSC-selective rocaglates. To enable cross-compound comparisons of target engagement, the inventors opted to use the Proteome Integral Solubility Alteration (PISA) assay,^29 a derivative of the mass spectrometry-based Cellular Thermal Shift Assay (MS-CETSA). In MS-CETSA,^30,31 target engagement is inferred through proteome-wide analysis of compound-induced changes to protein thermal stability; proteins with a shift in their half-maximal thermal denaturation temperature upon compound treatment are flagged as potential targets. The PISA assay obviates the need for MS-CETSA-derived thermal denaturation curves through curve integration by pooling of individual temperature points into a single “integral” sample for each treatment condition, thereby increasing throughput (FIG. 9). In contrast to MS-CETSA (which relies on curve comparisons), PISA determinations are performed by simply comparing soluble protein abundance levels between compound- and DMSO-treated samples. Importantly, protein fold-change measurements in PISA experiments generally scale with the thermal shift derived from CETSA experiments, and the magnitude of a thermal shift can inform on relative affinity between compounds and individual targets.^30,32-25 Maximal stability changes are protein-specific,^36 however, precluding estimations of preference for one target over another. Thus, PISA allows for simultaneous target profiling and comparisons of binding affinity between different compounds within a given target.
Of note, we also detected stabilization of DDX3Y, a paralog which shares >90% sequence similarity with DDX3X.
PISA assay in GBM0308 cell lysates: The PISA assay was performed in lysates as described by Gaetani and coworkers^S2 with slight modification. […] Lysate concentration was determined using a Pierce BCA Protein Assay Kit and adjusted to 2.0 mg/mL in lysis buffer. […]

The mark [3] stands for this setting: FF cistron, Krebs-2 extracts, 30° C., 1 h, read-out: cap-dependent translation inhibition EC50.

Molecules are shown by their SMILES. pEC50: −log10 of the molar value. Several values for one entry are separate records, joined by “and”; a condition that tells them apart may be missing. Equal entries are not always repeated. Where two headings read alike, the source gives them in different places.

Take `CONC(=O)[C@H]1[C@@H](O)[C@@]2(O)c3c(OC)cc(OC)cc3O[C@@]2(c2ccc(OC)cc2)[C@@H]1c1ccccc1` [(−)-5, CR-1-31b, reference compound]: the pEC50 in experiment [1] (setting [3]) is 6.67 and ~6.70. Take `CONC(=O)[C@H]1[C@@H](O)[C@@]2(O)c3c(OC)cc(OC)cc3O[C@@]2(c2ccc(Br)cc2)[C@@H]1c1ccccc1` [(−)-7, SDS-1-021]: the “thermal stabilization of DDX3X (PISA), in words” value in experiment [2] is “stabilized”. Turning to `COc1cc(OC)c2c(c1)O[C@@]1(c3ccc(Br)cc3)[C@H](c3ccccc3)[C@@H](C(=O)NS(=O)(=O)N(C)C)[C@@H](O)[C@@]21O` [(−)-20, (1R,2R,3S,3aR,8bS)-3a-(4-bromophenyl)-N—(N,N-dimethylsulfamoyl)-1,8b-dihydroxy-6,8-dimethoxy-3-phenyl-2,3,3a,8b-tetrahydro-1H-cyclopenta[b]benzofuran-2-carboxamide], the pEC50 in experiment [1] (setting [3]) was 6.03; in experiment [1] (approximate value, read-out: translation inhibition EC50), ~6.00. For the same molecule, the “thermal stabilization of DDX3X (PISA), in words” value in experiment [2] is recorded as “stabilized”.

By pEC50 is commonly meant the negative decadic logarithm of the EC50, by convention in mol/L.
